Patent US4166864A, “Pesticidal unsymmetrical bis-arylcarbamate disulfide compounds” (Union Carbide Corporation, priority 1977, dated 1979)

Legend:
Format in all cases: in vivo
[1] = tested on: Mexican bean beetle (Epilachna varivestis, Muls.); assay: Mexican Bean Beetle Leaf Spray Test; parameters: key: A: excellent control; B: partial control; C: no control; conditions: 500 ppm leaf spray, three days
Description: (§1) Suspensions of the test compounds were prepared by dissolving one gram of compound in 50 milliliters of acetone in which had been dissolved 0.1 gram (10 percent of the weight of compound) of an alkylphenoxy polyethoxyethanol surfactant, as an emulsifying or dispersing agent. The resulting solution was mixed into 150 milliliters of water to give roughly 200 milliliters of a suspension containing the compound in finely divided form. The thus-prepared stock suspension contained 0.5 percent by weight of compound. The test concentrations in parts per million by weight employed in the tests described hereinbelow were obtained by appropriate dilutions of the stock suspension with water. The test procedures were as follows:
Fourth instar larvae of the Mexican bean beetle (Epilachna varivestis, Muls.), reared on Tendergreen bean plants at a temperature of 80°±5° F. and 50±5 percent relative humidity, were the test insects.
The test compounds were formulated by diluting the stock suspension with water to give a suspension containing 500 parts of test compound per million parts of final formulation. Potted Tendergreen bean plants of standard height and age were placed on a revolving turntable and sprayed with 100-110 milliliters of test compound formulation by use of a DeVilbiss spray gun set at 10 psig air pressure. This application, which lasted 25 seconds, was sufficient to wet plants to run-off. As a control, 100-110 milliliters of a water-acetone-emulsifier solution containing no test compound were also sprayed on infested plants. When dry, the paired leaves were separated and each was placed in a 9 centimeter Petri dish lined with moistened filter paper. Five randomly selected larvae were introduced into each dish, and the dishes were closed. The closed dishes were labeled and held at a temperature of 80°±5° F. for three days. Although the larvae could easily consume the leaf within 24 to 48 hours, no more food was added. Larvae which were unable to move the length of the body, even upon stimulation, were considered dead.
(§2) In these tests the pesticidal activity of the compounds against aphid, mite, Southerm Armyworm, Bean Beetle and house fly was rated as follows: […]

[2] = tested on: bean aphid (Aphis fabae Scop.); assay: Bean Aphid Foliage Spray Test; parameters: key: A: excellent control; B: partial control; C: no control; conditions: 500 ppm foliage spray, 24 hour holding period
Description: as §1
Adults and nymphal stages of the bean aphid (Aphis fabae Scop.) reared on potted dwarf nasturtium plants at […] and 50-70 percent relative humidity, constituted the test insects. For testing purposes, the number of aphids per pot was standardized to 100-150 by trimming plants containing excess aphids.
The test compounds were formulated by diluting the stock suspension with water to give a suspension containing 500 parts of test compound per million parts of final formulation.
The potted plants (one pot per compound tested) infested with 100-150 aphids, were placed on a revolving turntable and sprayed with 100-110 milliliters of test compound formulation by use of a DeVilbiss spray gun set at 40 psig. air pressure. This application, which lasted 25 seconds, was sufficient to wet the plants to run-off. As a control, 100-110 milliliters of a water-acetone-emulsifier solution containing no test compound were also sprayed on infested plants. After spraying, the pots were placed on their sides on a sheet of white standard mimeograph paper which had been previously ruled to facilitate counting. Temperature and humidity in the test room during the 24 hour holding period were 65°-70° F. and 50-70 percent, respectively. Aphids which fell onto the paper and were unable to remain standing after being uprighted were considered dead. Aphids remaining on the plants were observed closely for movement and those which were unable to move the length of the body upon stimulation by prodding were considered dead. Percent mortality was recorded for various concentration levels.
as §2

Corn = assay: Phytotoxicity Test, corn; parameters: key: 1: no perceptible injury; 2: intermediate degrees of injury based upon the number and extent to which leaves were injured; 3: intermediate degrees of injury based upon the number and extent to which leaves were injured; 4: intermediate degrees of injury based upon the number and extent to which leaves were injured; 5: the plant was dead; conditions: 2500 ppm spray, rated after ten days
Description: (§3) Experiments were also conducted to determine the phytoxicity of representative compounds with respect to healthy fresh plants. Solutions of the compounds were prepared as described above to provide a concentration of 2500 parts per million of the test compound. The test plants were sprayed in accordance with the procedure described above for the Mite Foliage Spray Test so as to deliver approximately 100 milliliters of test solution to the leaves of each plant tested. The sprayed plants and controls were set aside for approximately one hour to allow the foliage to dry and were then placed in the greenhouse. After ten days the plants were visually inspected to determine the extent of foliage injury. A rating of 1 indicates no perceptible injury; 5 indicates the plant was dead and ratings of 2, 3 and 4 indicate intermediate degrees of injury based upon the number and extent to which leaves were injured.

[3] = tested on: two-spotted mite (Tetranychus urticae Koch); assay: Mite Foliage Spray Test; parameters: key: A: excellent control; B: partial control; C: no control; conditions: 500 ppm foliage spray, six days
Description: as §1
Adults and nymphal stages of the two-spotted mite (Tetranychus urticae Koch), reared on Tendergreen bean plants at 80±5 percent relative humidity, were the test organisms. Infested leaves from a stock culture were placed on the primary leaves of two bean plants six to eight inches in height, growing in a two-and-a-half inch clay pot. 150-200 Mites, a sufficient number for testing, transferred from the excised leaves to the fresh plants in a period of twenty four hours. Following the twenty four hour transfer period, the excised leaves were removed from the infested plants. The test compounds were formulated by diluting the stock suspension with water to give a suspension containing 500 parts of test compound per million parts of final formulation. The potted plants (one pot per compound) were placed on a revolving turntable and sprayed with 100-110 milliliters of test compound formulation by use of a DeVilbiss spray gun set at 40 psig. air pressure. This application, which lasted 25 seconds, was sufficient to wet the plants to run-off. As a control, 100=110 milliliters of a water solution containing acetone and emulsifier in the same concentrations as the test compound formulation, but containing no test compound, were also sprayed on infested plants. The sprayed plants were held at 80±5 percent relative humidity for six days, after which a mortality count of motile forms was made. Microscopic examination for motile forms was made on the leaves of the test plants. Any individual which was capable of locomotion upon prodding was considered living. […]
as §2

Tomato = assay: Phytotoxicity Test, tomato; parameters: key: 1: no perceptible injury; 2: intermediate degrees of injury based upon the number and extent to which leaves were injured; 3: intermediate degrees of injury based upon the number and extent to which leaves were injured; 4: intermediate degrees of injury based upon the number and extent to which leaves were injured; 5: the plant was dead; conditions: 2500 ppm spray, rated after ten days
Description: as §3

Soybean = assay: Phytotoxicity Test, soybean; parameters: key: 1: no perceptible injury; 2: intermediate degrees of injury based upon the number and extent to which leaves were injured; 3: intermediate degrees of injury based upon the number and extent to which leaves were injured; 4: intermediate degrees of injury based upon the number and extent to which leaves were injured; 5: the plant was dead; conditions: 2500 ppm spray, rated after ten days
Description: as §3

[4] = tested on: southern armyworm (Prodenia eridania, (Cram.)); assay: Southern Armyworm Leaf Spray Test; parameters: key: A: excellent control; B: partial control; C: no control; conditions: 500 ppm leaf spray, three days
Description: as §1
Larvae of the southern arymworm (Prodenia eridania, (Cram.)), reared on Tendergreen bean plants at a temperature of 80°±5° F. and a relative humidity of 50±5 percent, constituted the test insects.
The test compounds were formulated by diluting the stock suspension with water to give a suspension containing 500 parts of test compound per million parts of final formulation. Potted Tendergreen bean plants of standard height and age were placed on a revolving turntable and sprayed with 100-110 milliliters of test compound formulation by use of a DeVilbiss spray gun set at 10 psig air pressure. This application, which lasted 25 seconds, was sufficient to wet plants to run-off. As a control, 100-110 milliliters of a water-acetone-emulsifier solution containing no test compound were also sprayed on infested plants. When dry, the paired leaves were separated and each one was placed in a 9 centimeter Petri dish lined with moistened filter paper. Five randomly selected larvae were introduced into each dish and the dishes were closed. The closed dishes were labeled and held at 80°-85° F. for three days. Although the larvae could easily consume the whole leaf within twenty-four hours, no more food was added. Larvae which were unable to move the length of the body, even upon stimulation by prodding, were considered dead. Percent mortality was recorded for various concentration levels.
as §2

Cotton = assay: Phytotoxicity Test, cotton; parameters: key: 1: no perceptible injury; 2: intermediate degrees of injury based upon the number and extent to which leaves were injured; 3: intermediate degrees of injury based upon the number and extent to which leaves were injured; 4: intermediate degrees of injury based upon the number and extent to which leaves were injured; 5: the plant was dead; conditions: 2500 ppm spray, rated after ten days
Description: as §3

Bean = assay: Phytotoxicity Test, bean; parameters: key: 1: no perceptible injury; 2: intermediate degrees of injury based upon the number and extent to which leaves were injured; 3: intermediate degrees of injury based upon the number and extent to which leaves were injured; 4: intermediate degrees of injury based upon the number and extent to which leaves were injured; 5: the plant was dead; conditions: 2500 ppm spray, rated after ten days
Description: as §3

[5] = tested on: house flies (Musca domestica, L.); assay: Fly Bait Test; parameters: key: A: excellent control; B: partial control; C: no control; conditions: 500 ppm in sugar-solution bait, twenty four hours
Description: as §1
Four to six day old adult house flies (Musca domestica, L.) reared according to the specifications of the Chemical Specialties Manufacturing Association (Blue Book, McNair-Dorland Co., N.Y. 1954; pages 243-244, 261) under controlled conditions of 80°±5° F. and 50±5 percent relative humidity, were the test insects. The flies were immobilized by anesthetizing with carbon dioxide and twenty five immobilized individuals, males and females, were transferred to a cage consisting of a standard food strainer about five inches in diameter which was inverted over a wrapping-paper-covered surface. The test compounds were formulated by diluting the stock suspension with a 10 percent (by weight) sugar solution to give a suspension containing 500 parts of test compound per million parts of final formulation, by weight. Ten milliliters of the test formulation were added to a souffle cup containing a one-inch square of an absorbent cotton pad. This bait cup was introduced and centered on the blotting paper under the food strainer prior to admitting the anesthetized flies. The caged flies were allowed to feed on the bait for twenty four hours, at a temperature of 80°±5° F. and the relative humidity of 50±5 percent.
as §2

Row | SMILES | Insecticidal activity rating, Mexican Bean Beetle [1] | Insecticidal activity rating, Aphid [2] | Phytotoxicity, Corn (Corn) | Miticidal activity rating, Mite [3] | Phytotoxicity, Tomato (Tomato) | Phytotoxicity, Soybean (Soybean) | Insecticidal activity rating, Southern Armyworm [4] | Phytotoxicity, Cotton (Cotton) | Phytotoxicity, Bean (Bean) | Insecticidal activity rating, Housefly [5]
1 | C#CCOc1ccccc1OC(=O)N(C)SSN(C)C(=O)Oc1cccc2c1OC(C)(C)C2 | A | A | 1 | C | 1 | 2 | A | 1 | 1 | A
2 | CN(SSN(C)C(=O)Oc1cccc2ccccc12)C(=O)Oc1cccc2c1OC(C)(C)C2 | A | A | 1 | C | 1 | 1 | A | 1 | 1 | A
3 | CSc1ccc(OC(=O)N(C)SSN(C)C(=O)Oc2cccc3c2OC(C)(C)C3)cc1C | A | A | 1 | C | 1 | 1 | A | 1 | 1 | A
4 | Cc1cc(C)cc(OC(=O)N(C)SSN(C)C(=O)Oc2cccc3c2OC(C)(C)C3)c1 | A | A | 1 | C | 1 | 1 | A | 1 | 1 | A
5 | CN(SSN(C)C(=O)Oc1cccc2c1OC(C)(C)C2)C(=O)Oc1cccc(N(C)C)c1 | A | A | 1 | C | 1 | 1 | A | 1 | 1 | A
6 | CN(SSN(C)C(=O)Oc1cccc2c1OC(C)(C)C2)C(=O)Oc1ccc2c(c1)OCO2 | A | A | 1 | C | 1 | 1 | A | 1 | 1 | A
7 | CN(SSN(C)C(=O)Oc1ccccc1C1SCCS1)C(=O)Oc1ccc(C(C)(C)C)cc1 | A | A | 1 | C | 1 | 1 | C | 1 | 1 | A
